From patent US6340684B1, “Phthalazine derivatives as phosphodiesterase 4 inhibitors” (Zambon Group S.p.A., priority 1998, dated 2002)

Target: PDE 4 enzyme
Assay: PDE 4 enzyme inhibition (Scintillation Proximity Assay, enzyme purified from human polymorphonuclear leukocytes)
Assay type: biochemical
Conditions: PDE 4 from human PMNs; SPA, [3H]cAMP, 40 minutes at 30° C.; read-out: IC50 (concentration required to inhibit cyclic nucleotide hydrolysis by 50%)
Method: Human polymorphonuclear leukocyte isolation
The polymorphonuclear leukocytes (PMNs) were isolated from peripheral blood of healthy volunteers according to Boyum A. (Scand. J. Immunol., 1976, 5th suppl., 9). Briefly, the PMNs were purified by Ficoll-Paque gradient centrifugation followed by sedimentation on dextran and the erythrocyte contamination was eliminated by hypotonic lysis.
PDE 4 enzyme purification
The human PMNs were suspended in TRIS/HCl buffer (10 mM, pH 7.8) containing MgCl2 (5 mM), EGTA (4 mM), mercaptoethanol (5 mM), TRITON-X100 (1%), pepstatin A (1 μM), PMSF (100 μM) and leupeptin (1 μM), and homogenised by Polytron homogeniser. The homogenate was centrifuged at 25,000×g for 30 minutes at 4° C. and the PDE 4 enzyme was purified by ion exchange chromatography using the FPLC technique according to Schudt C. et al. (Naunyn-Schmidberg's Arch. Pharmacol., 1991, 334, 682). The supernatant was seeded on a UNO Q12 column (Bio-Rad) and the enzyme was eluted by sodium acetate linear gradient from 50 mM to 1M using a flow rate of 4.5 ml/minutes. […]
The enzyme activity was evaluated with a Scintillation Proximity Assay (SPA) kit (Amersham). […]
SPA beads (50 μl) containing 18 mM zinc sulphate were added to stop the reaction and after 20 minutes at room temperature the radioactivity was measured using a scintillation counter. […]

IC50: 8 ± 0.5 nM
SMILES: CS(=O)(=O)N1Cc2c(ccc(OC(F)F)c2OC2CCCO2)C(Cc2c(Cl)cncc2Cl)=N1 (stereo not shown) [Compound 10, 1-(3,5-dichloro-pyridin-4-ylmethyl)-3-methansulphonyl-6-difluoromethoxy-5-(tetrahydro-furan-2-yloxy)-4H-phthalazine]
